Reference: patent publication US12503455B2, “Nucleic acid-binding photoprobes and uses thereof” (Arrakis Therapeutics, Inc., priority 2017, dated 2025)

Experiments:
Type in all cases: binding
PreQ1 RNA = assay: Reverse transcriptase pausing gel assay of photo-crosslinking to PreQ1 RNA; settings: 1 uM RNA, 9 uM PreQ1 probe, UV ~360 nm
Description: (§1) A solution of RNA at 2 to 5 μM in nuclease-free water was heated to 95° C. for 3 min and then cooled on ice for 2 min. This solution was diluted with ½ volume of 3×RNA folding buffer (60 mM TrisHCl pH 8, 300 mM KCl, 9 mM MgCl2) and incubated at 37° C. for 20 min. Folding was carried out immediately before use of the RNA in each experiment. In cases where a mixture of RNA molecules was used in vitro the RNAs were folded separately and then combined prior to the probing experiment.
[…] The sample was then irradiated with long wave UV light (˜365 nm) for 30 min in a UV crosslinker (Fisher Scientific).
(§2) A 3.75 μL aliquot of 10 μM reverse transcription primer was added to the cross-linked RNA sample, which was then incubated for 5 min at 65° C. and then cooled on ice. The sample was then diluted to a final volume of 60 μL and final buffer concentration of 1× Protoscript-II buffer (New England Biolabs), 0.5 mM dNTPs, 10 mM DTT, 0.4 U/μL RNase Inhibitor (New England Biolabs), and 10 U/μL Protoscript-II (New England Biolabs). The reaction was incubated at 45° C. for 2 h, 65° C. for 20 min, and then 4° C.
The RNA was hydrolyzed by the addition of 4.8 μL of 2.5 M NaOH and heating at 95° C. for 5 min. […]
The cDNA pellet was resuspended in 12 μL of 1×TBE-urea sample loading buffer (Bio-Rad) and heated to 95° C. for 5 min. […] The gel fluorescence was imaged on an Azure c600 instrument.

Aptamer 21 [1] = assay: Reverse transcriptase pausing (drop-off) gel assay of photo-crosslinking to Aptamer 21; settings: 1 uM RNA, 10 uM probe (9 uM PreQ1 probe), UV ~360 nm
Description: as §1
Folded RNA (1 μM) was incubated with the photoaffinity probe (10 μM) in total 25 μL of buffer (20 mM TrisHCl pH 8, 100 mM KCl, 3 mM MgCl2) with 2.5% DMSO for 30 min at 37° C. to allow binding to come to equilibrium. The sample was then irradiated with long wave UV light (˜365 nm) for 30 min in a UV crosslinker (Fisher Scientific).
as §2
The RNA was hydrolyzed by the addition of 4.8 μL of 2.5 M NaOH and heating at 95° C. for 5 min. The reaction was quenched by the addition of 0.9 μL of acetic acid. The cDNA was precipitated by the addition of 6.6 μL of 3 M sodium acetate pH 5 and 181 μL ethanol, cooling to −80° C. for 1 h, and then centrifuging at 20,500×g at 4° C. for 30 min. The cDNA pellet was washed twice with 500 μL of 70% ethanol and then air dried for 5 min.
The cDNA pellet was resuspended in 12 μL of 1×TBE-urea sample loading buffer (Bio-Rad) and heated to 95° C. for 5 min. The sample was then run on a pre-cast 8.6×6.7 cm TBE-urea 10% PAGE gel (Bio-Rad) at 120 V until the lower bromophenol blue dye reached the bottom of the gel. The gel was stained with 1×SYBR-gold (Invitrogen) in 1×TBE buffer at room temperature for 20 min covered from light. The gel fluorescence was imaged on an Azure c600 instrument.

Aptamer 21 [2] = assay: Capture of Aptamer 21 with click-biotinylated probes; settings: Aptamer 21 or Aptamer 21-E
Description: A 50 μL sample of 1 μM folded Aptamer 21 or Aptamer 21-E solution in folding buffer (20 mM TrisHCl pH 8, 100 mM KCl, 3 mM MgCl2) was added to a 0.5 μL aliquot of 0.5 mM ARK-729, ARK-2058, ARK-816, or ARK-2059 in DMSO or a DMSO-only control. The solution was incubated at 37° C. for 1 h and then irradiated with long wave UV light (˜365 nm) for 30 min in a UV crosslinker (Fisher Scientific). To this solution was added 0.5 μL of 10 mM DBCO-biotin (Click Chemistry Tools, cat. #A105) and 2 μL of 0.5 M EDTA pH 8 and then the solution was incubated at 65° C. for 2 h. The RNA was ethanol precipitated by adding 35 μL of water, 2 uL of 5 mg/mL glycogen, 10 μL 3 M NaOAc pH 5, and 250 μL ethanol, incubating at −80° C. for 1 h, centrifuging at 20000×g for 30 min, washing the pellet twice with 500 μL of 70% ethanol, and then air drying the pellet.
The RNA pellet was redissolved in 50 μL of 1× bind/wash buffer (20 mM TrisHCl pH 7, 100 mM KCl, 0.1% Tween-20). A 50 μL aliquot of MyOne Streptavidin C1 Dynabead slurry (Thermo) was captured on a magnet, washed twice with 50 μL of 1× bind/wash buffer, and then resuspended in 50 μL of the crosslinked RNA sample. The bead suspension was rotated at room temperature for 30 min and then washed twice with 100 μL of 1× bind/wash solution. […]

[3] = test system: Aptamer 21 spiked into polyA+ RNA extract; assay: Capture of Aptamer 21 from PolyA+ RNA extract; settings: versus warhead-only control ARK-2059
Description: Total RNA was extracted from a pellet of 5×10^6 HepG2 cells using the ReliaPrep mini-prep kit (Promega) according to the manufacturer's standard protocol. The polyA+ RNA fraction was isolated from 50 μL sample of total RNA at 454 ng/μL using the magnetic mRNA isolation kit (New England Biolabs, cat #S1550) according to the manufacturer's standard protocol using 450 μL of lysis buffer and 100 μL of beads.
A sample of folded aptamer 21 RNA was spiked into a sample of polyA+ RNA extract at a final concentration of 1 nM aptamer 21 and 3 ng/μL polyA+ RNA. […]
Sequencing was performed on a single Illumina HiSeq 4000 lane with 150 bp paired-end reads using the standard manufacturer protocol.
Stitched reads were then processed with Cutadapt (http://dx.doi.org/10.14806/ej.17.1.200) with at least 5-nts of overlap and a maximum of 20% mismatches to simultaneously 1) define a unique 6-nt unique molecular identifier (UMI) in the correct adapter context (ATATAGGN6AGATCGG) (SEQ. […] UMIs were appended to read names, and reads were mapped the against the genome and transcriptome references (plus Aptamer 21) using the STAR aligner (http://dx.doi.org/10.1093/bioinformatics/bts635) with at most 10% mismatches. Groups of reads with identical or near-identical UMIs were then collapsed using the Directional Adjacency methods of UMI-tools (http://dx.doi.org/10.1101/gr.209601.116) with default parameters. […]

Row | cross-linking to PreQ1 RNA (RT pausing) (PreQ1 RNA) | cross-linking with Apt21 RNA (RT pausing) (Aptamer 21 [1]) | Compound | RT pausing peaks after click-biotinylation and avidin bead enrichment (Aptamer 21 [2]) | enrichment analysis of Aptamer 21 from PolyA+ RNA extract ([3]; avidin capture, next-generation sequencing) | RT pausing ratio peaks on Aptamer 21 spiked into PolyA+ RNA extract ([3]; extract from HepG2 cells)
1 | does not show cross-linking | does not show cross-linking | CC1(CCC(=O)NCCOCCOCCNCc2c[nH]c3nc(N)[nH]c(=O)c23)N=N1 [I-23] | – | – | –
2 | – | – | COC(=O)C1=C(COCc2cn(CCOCCOCCC(=O)NCCC3(CCN=[N+]=[N-])N=N3)nn2)NC(c2ccncc2)=NC1c1ccc(F)cc1Cl (centres unmarked) [ARK-816] | RT pausing peaks specific to Aptamer 21 | Enrichment of the sites of probe-specific RT pausing on Aptamer 21 was observed | observed at the same positions as for isolated Aptamer 21
